Assay results from patent US20030158250A1, “Agents correcting gene expression regulatory error” (priority 2000, published 2003).

Tests used:
Assay type in all cases: cell-based
interleukin-6 (IL-6) = experiment: TPA-induced IL-6 production in peritoneal macrophage (ELISA); conditions: mouse peritoneal macrophage, final concentrations 20 μM and 10 μM, 14 hours, IL-6 in culture supernatant by ELISA
Procedure: Four milliliters of a 10% fetal bovine serum-containing RPMI 1640 medium (manufactured by Bio Whittaker, 12-702F) was intraperitoneally injected to ddy mouse (Nippon SLC, female, 7-weeks old), and the mouse was well massaged, and the medium was taken out to obtain peritoneal cells. The peritoneal cells were suspended in the 10% fetal bovine serum-containing RPMI 1640 medium so as to have a concentration of 10^6 cells/ml, and dispensed into 48-well microtiter plate in a volume of 500 μl each. The peritoneal cells were cultured at 37° C. for 2 hours in the presence of 5% CO2 gas. Thereafter, the culture supernatant was removed to give adherent cells to be used as peritoneal macrophage. To each well was freshly dispensed a Dulbecco's modified Eagle's medium (manufactured by Bio Whittaker; 12-917F) without phenol red containing 10% fetal bovine serum and 2 mM L-glutamine in a volume of 500 μl. […] The content of interleukin-6 (IL-6) in the culture supernatant was assayed by enzyme immuno-sandwich assay (ELISA: Matched antibody Pair SamplePak mouse IL-6, manufactured by Endogen). Here, the group with no addition of DGE and TPA aqueous solution (control) was set as a negative control, and the group with addition of TPA aqueous solution alone (control+TPA) was set as a positive control. In addition, all of the assays were carried out twice.

interleukin-10 (IL-10) = experiment: LPS-induced IL-10 production in RAW 264.7 cells (ELISA); conditions: final concentration 20 μM, 5 hours, then LPS 18 hours, IL-10 in culture supernatant by ELISA
Procedure: RAW 264.7 cells (ATCC TIB 71) were suspended in a Dulbecco's modified Eagle's medium (manufactured by Bio Whittaker; 12-604F) containing 10% fetal bovine serum (manufactured by Gibco), so as to have a concentration of 3×10^5 cells/ml. The cell suspension was added to each well of a 48-well microtiter plate in a volume of 0.5 ml each. The cells were cultured at 37° C. in the presence of 5% CO2 gas overnight. To each well was added 5 μl of a 2 mM DGE aqueous solution (final concentration: 20 μM), and the cells were cultured for additional 5 hours. Thereafter, 5 μl of a 100 μg/ml lipopolysaccharide (LPS, manufactured by Sigma, L-2012) aqueous solution was added thereto, and the cells were cultured for 18 hours, and thereafter the culture supernatant was recovered. The content of the interleukin-10 (IL-10) in the culture supernatant was assayed by the enzyme immuno-sandwich assay. Here, the group with no addition of DGE and LPS aqueous solution (control) was set as a negative control, and the group with addition of LPS aqueous solution (control+LPS) alone was set as a positive control. In addition, all of the assays were carried out twice.

TNFα = experiment: LPS-stimulated TNFα production in monocytes (ELISA); conditions: human monocytes, final concentration 10 μM, 20 μM or 40 μM, 5 hours, then LPS 4 hours
Procedure: PBMCs were isolated in the same manner as in item (1) of Example 4. PBMCs were suspended in RPMI 1640 medium containing 5% human serum of blood type-AB, 0.1 mM nonessential amino acid, 1 mM sodium pyruvate, 2 mM L-glutamine (hereinabove manufactured by Bio Whittaker), 10 mM HEPES (manufactured by nakalai tesque), and 1% streptomycin-penicillin (manufactured by Gibco BRL) (hereinafter simply referred to as “5HRPMI medium”) so as to have a concentration of 2×10^6 cells/ml. Thereafter, the suspension was spread on a 24-well cell culture plate (manufactured by Falcon) in a volume of 1 ml/well, and the cells were incubated in a wet-type incubator at 37° C. and 5% CO2 for 1.5 hours. After 1.5 hours, the non-adherent cells were removed by suction, and each well was washed with RPMI 1640 medium, and 1 ml of the 5HRPMI medium was added to the wells, to give monocytes.
To the monocytes obtained above was added in each well 10 μl of a 1 mM, 2 mM or 4 mM aqueous DGE solution (each having a final concentration of 10 μM, 20 μM or 40 μM), or a 5 mM, 10 mM or 20 mM aqueous agarobiose solution (each having a final concentration of 50 μM, 100 μM or 200 μM), or 10 μl of water as a control (i.e. each of concentrations of DGE and agarobiose being 0 μM), and the cells were incubated in a wet-type incubator at 37° C. and 5% CO2 for 5 hours. […]

O=C1C=CC(CO)OC1O [DGE, L-glycero-1,5-epoxy-1αβ,6-dihydroxy-cis-hex-3-en-2-one]
inhibition of TPA-induced IL-6 production (interleukin-6 (IL-6)): inhibition of TPA-induced IL-6 production was found DGE-concentration dependently
inhibition of LPS-induced IL-10 production (interleukin-10 (IL-10)): inhibition of LPS-induced IL-10 production was found
inhibition of LPS-stimulated TNFα production (TNFα): inhibition
